pIC50: −log10 of the molar value.

A short description of assay [1]: Selectivity ratio of IC50 for ovine COX1 to IC50 for recombinant human COX2.
Assay [2] addresses T1, Prostaglandin G/H synthase 2 (Homo sapiens, UniProt P35354).
T1 sequence (P35354 whole entry): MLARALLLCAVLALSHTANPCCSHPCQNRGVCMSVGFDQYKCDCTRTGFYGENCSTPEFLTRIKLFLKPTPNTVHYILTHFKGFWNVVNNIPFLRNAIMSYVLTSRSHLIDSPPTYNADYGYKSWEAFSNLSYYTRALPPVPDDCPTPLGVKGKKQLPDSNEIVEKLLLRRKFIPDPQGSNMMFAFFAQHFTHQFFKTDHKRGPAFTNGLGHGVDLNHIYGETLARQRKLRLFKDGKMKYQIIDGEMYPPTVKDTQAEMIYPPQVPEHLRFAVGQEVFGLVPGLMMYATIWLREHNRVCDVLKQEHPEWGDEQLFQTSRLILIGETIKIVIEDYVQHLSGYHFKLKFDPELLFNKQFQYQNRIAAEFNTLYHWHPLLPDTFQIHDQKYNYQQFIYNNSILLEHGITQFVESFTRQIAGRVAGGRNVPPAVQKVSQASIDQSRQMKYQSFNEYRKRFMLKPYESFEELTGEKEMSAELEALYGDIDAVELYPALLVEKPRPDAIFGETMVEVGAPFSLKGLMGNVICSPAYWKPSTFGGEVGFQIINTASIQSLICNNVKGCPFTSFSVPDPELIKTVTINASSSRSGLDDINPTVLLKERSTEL
As to the kind of experiment: Inhibition of recombinant human COX2 assessed as decrease in PGE2 release after 10 mins by ELISA. (In general: An ELISA detects its analyte on a solid surface through an enzyme-linked reagent.)

Assay [3] can be described thus: In vitro anti-inflammatory activity at 100 mg/ml incubated for 15 mins followed by heating for 10 mins and cooling by albumin denaturation assay relative to control.
The test system of assay [4] is Rattus norvegicus. As to the kind of experiment: Anti-inflammatory activity in carrageenan-induced Swiss albino rat assessed as reduction in paw edema by measuring swelling thickness at 10 ml/kg, po pretreated for 1 hr followed by carrageenan addition and measured up to 6 hrs at 1 hr interval relative to control. In kind it is functional. The arrangement: scale not given: the % may be the effect or the level left.

Assay [5] deals with T1, Prostaglandin G/H synthase 2. As to the kind of experiment: Inhibition of COX2 (unknown origin) using arachidonic acid as substrate preincubated for 20 mins followed by substrate addition measured at 1 sec interval up to 60 secs by chemiluminescence assay.
The test system of a further assay is Mus musculus. The assay is described as follows: Anti-inflammatory activity in formalin-induced Swiss albino mouse assessed as reduction in paw edema volume at 10 mg/kg, ip pretreated for 30 mins followed by formalin addition relative to control. Details: scale not given: the % may be the effect or the level left. In kind it is functional.
Assay [6] deals with Rattus norvegicus. As to the kind of experiment: Anti-inflammatory activity in carrageenan-induced albino rat assessed as reduction in paw edema volume at 20 umol/kg, po measured at 1 hr intervals up to 4 hrs relative to control. In kind it is functional. Details: scale not given: the % may be the effect or the level left.
The target of assay [7] is T2, Prostaglandin G/H synthase 2 (Homo sapiens) (UniProt P35354).
T2 sequence (whole entry): T1 sequence (P35354 whole entry)
The conditions noted are these: Blood, at 10 µM.
Description: Inhibition of COX2 in LPS-induced human whole blood at 10 uM after 24 hrs by EIA relative to control

For the compound `CCOC(=O)CSc1nnc(-c2ccc(S(C)(=O)=O)cc2)c(-c2ccccc2)n1`, the Ratio IC50 in assay [1] was found to be 8.79. Moreover, in assay [2], the pIC50 (usually −log10 of the IC50, conventionally taken in molar units) was 5.00.
With `CCOC(=O)CSc1nnc(-c2ccc(S(C)(=O)=O)cc2)c(-c2ccc(Cl)cc2)n1`, in assay [1], the Ratio IC50 amounted to 8.79. Besides, the negative-log IC50 (pIC50) in assay [2] is 5.00.
With `Cc1ccc(-c2cc(C(F)(F)F)nn2-c2ccc(S(N)(=O)=O)cc2)cc1` [CELECOXIB], the Activity in assay [3] was 80.3%; in the assay with Rattus norvegicus [4], 62.26%.
Regarding `O=c1nc(-c2ccccc2)c(-c2ccccc2)nn1Cc1nnc(Nc2ccc(Cl)cc2)s1`, in assay [3], the Activity is 71.9 to 79.2%.
As for `O=c1nc(-c2ccccc2)c(-c2ccccc2)nn1Cc1nnc(Nc2ccc([N+](=O)[O-])cc2)o1`, the Activity in assay [3] was 71.9 to 79.2%; in the assay on Rattus norvegicus [4] it was 57.9 - 61.56%.
For the compound `CCOC(=O)c1cnn(-c2ccccn2)c1-n1nnc2ccccc2c1=O`, the negative-log IC50 (pIC50) in assay [5] is 4.70.
In assay [3], `O=c1nc(-c2ccccc2)c(-c2ccccc2)nn1Cc1nnc(S)n1-c1ccc([N+](=O)[O-])cc1` gave an Activity of 71.9 to 79.2%.
Turning to `O=c1nc(-c2ccccc2)c(-c2ccccc2)nn1Cc1nnc(Nc2ccccc2)o1`, the results for the Activity (in assay [3]; in the assay on Rattus norvegicus [4]) were 71.9 to 79.2% and 57.9 - 61.56%, respectively.
Turning to `O=C([O-])Cc1ccccc1Nc1c(Cl)cccc1Cl.[Na+]` [DICLOFENAC SODIUM], the Activity in the assay with Mus musculus worked out at 78.82%.
`O=c1nc(-c2ccccc2)c(-c2ccccc2)nn1Cc1nnc(S)n1-c1ccccc1` showed an Activity in assay [3] of 71.9 to 79.2%.
Same read-out and setting: next, `Cc1ccc(Nc2nnc(Cn3nc(-c4ccccc4)c(-c4ccccc4)nc3=O)s2)cc1`: 71.9 to 79.2%.
In the case of `COc1ccc2c(c1)c(CC(=O)O)c(C)n2C(=O)c1ccc(Cl)cc1` [INDOMETHACIN], the Activity in the assay with Rattus norvegicus [6] turned out to be 80.96%; in assay [3] it was 82.7%; in the assay with Rattus norvegicus [4], 63.56%.
As for `Cc1sc2nnn(-c3ccccc3Cl)c(=O)c2c1C`, in the assay with Mus musculus, the Activity was 36.47%.
Take `COc1ccc(Nc2nnc(Cn3nc(-c4ccccc4)c(-c4ccccc4)nc3=O)s2)cc1`: the Activity in assay [3] was in the range of 71.9 to 79.2%.
In assay [3], `COc1ccc(-n2c(S)nnc2Cn2nc(-c3ccccc3)c(-c3ccccc3)nc2=O)cc1` gave an Activity of 71.9 to 79.2%.
Still for that read-out and setting: to `Cc1ccc(-n2c(S)nnc2Cn2nc(-c3ccccc3)c(-c3ccccc3)nc2=O)cc1` belongs 71.9 to 79.2%.
As for `Cc1sc2nnn(-c3ccccc3)c(=O)c2c1C`, the Activity in the assay on Mus musculus was found to be 70.82%.
For `CCOC(=O)CSc1nnc(-c2ccc(S(C)(=O)=O)cc2)c(-c2ccc(F)cc2)n1`, in assay [1], the Ratio IC50 came to 8.79. Moreover, in assay [2], the pIC50 was 5.00.
Regarding `COc1ccc(Nc2nnc(Cn3nc(-c4ccccc4)c(-c4ccccc4)nc3=O)o2)cc1`, the Activity in assay [3] is 71.9 to 79.2%; in the assay with Rattus norvegicus [4], 57.9 - 61.56%.
Take `COc1ccc(-c2nnc(N/N=C/c3ccc4c(c3)OCO4)nc2-c2ccc(OC)cc2)cc1`: in assay [7], the inhibition – broadly, the share of the control response that was lost under treatment – was 78%.
Regarding `CCOC(=O)CSc1nnc(-c2ccc(S(C)(=O)=O)cc2)c(-c2ccc(OC)cc2)n1`, the Ratio IC50 in assay [1] was 8.79. In addition, in assay [2], the negative logarithm of the IC50 (pIC50) was 5.00.
`O=c1nc(-c2ccccc2)c(-c2ccccc2)nn1Cc1nnc(Nc2ccc([N+](=O)[O-])cc2)s1` had an Activity in assay [3] of 71.9 to 79.2%.
As for `CCOC(=O)CSc1nnc(-c2ccc(S(C)(=O)=O)cc2)c(-c2ccc(C)cc2)n1`, the Ratio IC50 in assay [1] worked out at 8.79. Moreover, the pIC50 in assay [2] was 5.00.
For the compound `Cc1sc2nnn(-c3ccc(F)cc3)c(=O)c2c1C`, the Activity in the assay with Mus musculus was 34.12%.
In the case of `Cc1ccc(Nc2nnc(Cn3nc(-c4ccccc4)c(-c4ccccc4)nc3=O)o2)cc1`, the Activity in assay [3] is 71.9 to 79.2%; with Rattus norvegicus [4], 57.9 - 61.56%.
`Cc1sc2nnn(-c3ccc(F)c(Cl)c3)c(=O)c2c1C`: in the assay with Mus musculus, the Activity was 36.35%.
`O=c1nc(-c2ccccc2)c(-c2ccccc2)nn1Cc1nnc(S)n1-c1ccc(Cl)cc1`: in assay [3], the Activity fell in the range of 71.9 to 79.2%.
Turning to `COc1ccc(-c2nnc(N/N=C/c3cccc(OC)c3OC)nc2-c2ccc(OC)cc2)cc1`, the inhibition in assay [7] is 78%.
Consider `O=c1nc(-c2ccccc2)c(-c2ccccc2)nn1Cc1nnc(Nc2ccc(Cl)cc2)o1`, for which the values for the Activity (in assay [3]; in the assay on Rattus norvegicus [4]) were 71.9 to 79.2% and 57.9 - 61.56%, respectively.
As for `Cc1ccc(Nc2nc(-c3ccccc3)c3c(n2)sc2c(Nc4ccc(S(=O)(=O)NC(=N)N)cc4)nnnc23)cc1`, the Activity in the assay with Rattus norvegicus [6] was 78.57%.
Regarding `O=c1nc(-c2ccccc2)c(-c2ccccc2)nn1Cc1nnc(Nc2ccccc2)s1`, the Activity in assay [3] lay in the range of 71.9 to 79.2%.
As to `Cc1ccc(Nc2nc(-c3ccccc3)c3c(n2)sc2c(Cl)nnnc23)cc1`, the Activity with Rattus norvegicus [6] turned out to be 82.85%.

(Values after ChEMBL document CHEMBL4325906, “Anti-inflammatory activity of triazine derivatives: A systematic review” (Eur J Med Chem, 2019).)
